Source: US7652028B2, “Indenoisoquinolinone analogs and methods of use thereof” (Inotek Pharmaceuticals Corporation, priority 2005, dated 2010)

Biological target: T1, PARP (Homo sapiens, UniProt P09874)
T1 construct: endogenous in cells; host or cells: A549 human alveolar epithelial adenocarcinoma cells
Assay: PARP activity in hydrogen peroxide-stimulated A549 cells, whole-cell based assay (3H-NAD+ incorporation)
Conditions: 15 min pretreatment (10 nM-300 nM), hydrogen peroxide-induced PARP activation, from dose-response curve
Method: Human alveolar epithelial cells (A549), an adenocarcinoma cell line with the alveolar type 2 phenotype were cultured in […] medium supplemented with 10% fetal bovine serum. Cells were grown to 80% confluence in 12-well plates and pretreated with various concentrations (10 nM-300 nM) of an Indenoisoquinolinone Analog for 15 minutes. Hydrogen peroxide, a prototypical oxidant that induces DNA single strand breakage, was used to induce PARP activation. Hydrogen peroxide was diluted in culture media and added to the cells in a bolus of 20 μl. After 20 minutes of incubation, the medium was aspirated and 0.5 mL of assay buffer (56 mM HEPES pH 7.5, 28 mM KCl, 28 mM NaCl, 2 mM MgCl2, 0.01% w/v digitonin and 0.5 μCi/ml 3H-NAD^+) was added to cells. Following incubation in the assay buffer (15 minutes at 37° C.), PARP activity was measured. Cells were scraped from the plate, transferred to a 1.5 mL eppendorf tube and then added 200 μl of ice cold 50% w/v TCA. […] The contents of the tubes were added to 6.5 mL ScintiSafe Plus scintillation liquid (Fisher Scientific) and radioactivity was determined using a liquid scintillation counter (Wallac, Gaithersburg, Md.). […] EC50 values were determined from a dose-response curve. IC50 values were determined using a commercially available in vitro PARP-1 inhibition assay kit (Trevigen, Gaithersburg, Md., USA).

T1 sequence (P09874 whole entry): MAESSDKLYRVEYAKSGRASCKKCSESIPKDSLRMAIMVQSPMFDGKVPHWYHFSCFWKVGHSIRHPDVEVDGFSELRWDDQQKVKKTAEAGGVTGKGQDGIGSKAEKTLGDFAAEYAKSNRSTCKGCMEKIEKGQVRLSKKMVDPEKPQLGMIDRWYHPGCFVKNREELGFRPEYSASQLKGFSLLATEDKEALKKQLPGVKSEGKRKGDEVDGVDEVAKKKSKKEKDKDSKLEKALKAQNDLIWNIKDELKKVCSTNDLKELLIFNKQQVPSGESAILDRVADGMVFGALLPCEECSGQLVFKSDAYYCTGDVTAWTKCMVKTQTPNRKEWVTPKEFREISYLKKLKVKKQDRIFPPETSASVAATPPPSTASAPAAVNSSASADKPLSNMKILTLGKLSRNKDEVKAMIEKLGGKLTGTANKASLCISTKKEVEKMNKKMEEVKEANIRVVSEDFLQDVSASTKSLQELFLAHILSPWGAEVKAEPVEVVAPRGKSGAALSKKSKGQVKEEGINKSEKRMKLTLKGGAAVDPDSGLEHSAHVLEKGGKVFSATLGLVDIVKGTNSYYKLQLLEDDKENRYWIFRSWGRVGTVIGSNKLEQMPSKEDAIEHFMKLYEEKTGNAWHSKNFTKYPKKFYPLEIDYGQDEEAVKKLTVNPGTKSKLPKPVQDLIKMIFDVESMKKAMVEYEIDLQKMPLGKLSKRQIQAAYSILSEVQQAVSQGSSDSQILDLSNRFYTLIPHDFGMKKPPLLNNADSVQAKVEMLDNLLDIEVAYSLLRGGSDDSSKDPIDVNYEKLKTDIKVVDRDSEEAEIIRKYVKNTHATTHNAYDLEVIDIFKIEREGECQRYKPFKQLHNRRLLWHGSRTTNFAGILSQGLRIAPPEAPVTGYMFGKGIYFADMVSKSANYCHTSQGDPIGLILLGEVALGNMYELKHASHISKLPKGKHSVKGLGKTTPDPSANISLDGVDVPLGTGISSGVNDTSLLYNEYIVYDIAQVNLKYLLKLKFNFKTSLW

EC50: 0.29 µM
SMILES: O=c1[nH]c2c(c3ccccc13)Cc1c(CO)cccc1-2 [(I)(25), 10-hydroxymethyl-5,6-dihydro-5-oxo-11-H-indeno[1,2-c]isoquinoline]
